Paper PMC9873984, “Membrane cholesterol regulates inhibition and substrate transport by the glycine transporter, GlyT2” (Life Science Alliance, 2023)
Substitutions are numbered along the chain they refer to.

Columns and labels:
GlyT2 F515V mutant = GlyT2 F515V mutant (Homo sapiens, UniProt Q9Y345, F515V); settings: read-out: Glycine EC50; F515V (TM7)
From the text: (§1) GlyT2a (referred to herein as GlyT2) was subcloned into the plasmid oocyte transcription vector (pOTV) for expression in Xenopus laevis oocytes. Oligonucleotide primers incorporating desired mutations were synthesized by Sigma-Aldrich and used to generate point mutations in the GlyT2 cDNA/pOTV construct using the Q5 site-directed mutagenesis kit (New England Biolabs [Genesearch]). Amplified PCR products were transformed into chemically competent E. coli cells and purified using the GeneJET Plasmid Miniprep Kit (Thermo Fisher Scientific). Purified plasmid DNA was sequence-verified by the Australian Genome Research Facility. pOTV constructs were linearized with the restriction enzyme SpeI (New England Biolabs [Genesearch]), and RNA was transcribed by T7 RNA polymerase using the mMESSAGE mMACHINE T7 kit (Thermo Fisher Scientific).
(§2) The transport activity of GlyT2 is an electrogenic process as it couples the transport of glycine to the co-transport of 3 Na^+ and 1 Cl^− and thus can be measured using two-electrode voltage-clamp electrophysiology. Oocytes expressing GlyTs were voltage-clamped at −60 mV, and glycine-induced whole-cell currents were measured using a GeneClamp 500 amplifier (Axon Instruments), and a PowerLab 2/26 chart recorder (ADInstruments) and LabChart Software (ADInstruments).
(§3) Functionality of WT and mutant GlyT2 transporters was assessed by applying increasing concentrations of glycine (1–3,000 µM) in ND96 until a stable current was achieved. Glycine concentrations were applied individually and completely removed from the system via washing with recording buffer before proceeding to the next concentration. EC50 values for each transporter were determined by fitting concentration–response data to the modified Michaelis–Menten equation: I=([Gly].Imax)/(EC50+[Gly]), where I is current in nA, [Gly] is the concentration of glycine, Imax is the current generated by a maximal concentration of glycine, and EC50 is the concentration of glycine that generates a half-maximal current.

GlyT2 Y430F mutant = biological target: T1, GlyT2 Y430F mutant (Homo sapiens, UniProt Q9Y345, Y430F); settings: read-out: Glycine EC50; Y430F (TM5)
T1 sequence (Q9Y345 1-797 Y430F): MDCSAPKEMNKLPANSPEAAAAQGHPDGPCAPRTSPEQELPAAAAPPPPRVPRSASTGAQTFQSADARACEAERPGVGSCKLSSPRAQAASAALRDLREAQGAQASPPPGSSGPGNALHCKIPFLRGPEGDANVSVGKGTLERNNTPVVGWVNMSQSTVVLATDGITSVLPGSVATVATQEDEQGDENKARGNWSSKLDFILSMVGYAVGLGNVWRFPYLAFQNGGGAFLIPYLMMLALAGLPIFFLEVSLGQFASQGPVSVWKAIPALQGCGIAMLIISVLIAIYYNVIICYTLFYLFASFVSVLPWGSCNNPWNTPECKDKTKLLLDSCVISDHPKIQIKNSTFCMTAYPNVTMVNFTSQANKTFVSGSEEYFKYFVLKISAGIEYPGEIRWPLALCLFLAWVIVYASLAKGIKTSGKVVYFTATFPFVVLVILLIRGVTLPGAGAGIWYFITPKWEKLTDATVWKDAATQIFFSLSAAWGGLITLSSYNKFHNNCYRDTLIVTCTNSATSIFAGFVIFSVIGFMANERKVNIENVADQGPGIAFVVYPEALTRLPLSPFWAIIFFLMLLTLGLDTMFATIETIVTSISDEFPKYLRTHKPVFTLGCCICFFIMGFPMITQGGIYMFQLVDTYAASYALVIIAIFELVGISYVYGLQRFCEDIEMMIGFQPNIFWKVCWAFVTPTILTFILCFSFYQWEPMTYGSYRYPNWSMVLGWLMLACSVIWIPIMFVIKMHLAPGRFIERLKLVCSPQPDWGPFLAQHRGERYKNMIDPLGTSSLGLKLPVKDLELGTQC
From the text: as §1, §2, §3

GlyT2 Y430L mutant = biological target: T2, GlyT2 Y430L mutant (Homo sapiens, UniProt Q9Y345, Y430L); settings: read-out: Glycine EC50; Y430L (TM5)
T2 sequence (Q9Y345 1-797 Y430L): T1 sequence (Q9Y345 1-797 Y430F) with F430L
From the text: as §1, §2, §3

Sequence of GlyT2 F515V mutant (Q9Y345 whole entry F515V): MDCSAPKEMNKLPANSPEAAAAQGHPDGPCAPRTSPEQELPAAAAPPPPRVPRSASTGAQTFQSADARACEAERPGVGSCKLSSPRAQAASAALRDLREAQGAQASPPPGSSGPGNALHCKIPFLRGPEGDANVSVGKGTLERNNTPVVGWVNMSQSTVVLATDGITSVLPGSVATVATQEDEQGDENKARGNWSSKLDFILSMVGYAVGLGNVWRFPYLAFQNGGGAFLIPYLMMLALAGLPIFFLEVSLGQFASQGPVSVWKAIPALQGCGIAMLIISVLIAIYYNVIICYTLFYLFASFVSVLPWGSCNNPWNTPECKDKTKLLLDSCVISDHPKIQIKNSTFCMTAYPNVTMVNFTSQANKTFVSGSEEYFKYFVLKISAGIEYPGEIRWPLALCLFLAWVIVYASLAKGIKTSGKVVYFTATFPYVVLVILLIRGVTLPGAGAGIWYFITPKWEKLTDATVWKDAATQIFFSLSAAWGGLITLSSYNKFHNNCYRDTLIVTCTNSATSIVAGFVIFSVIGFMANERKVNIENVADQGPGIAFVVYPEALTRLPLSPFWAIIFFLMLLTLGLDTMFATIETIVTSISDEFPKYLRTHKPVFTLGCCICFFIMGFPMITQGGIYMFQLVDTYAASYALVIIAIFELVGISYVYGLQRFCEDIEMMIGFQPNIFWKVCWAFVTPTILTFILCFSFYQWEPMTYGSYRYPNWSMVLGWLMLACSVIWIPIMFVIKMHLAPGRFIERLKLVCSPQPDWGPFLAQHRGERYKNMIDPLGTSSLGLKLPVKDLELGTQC

NCC(=O)O [Glycine, glycine]
EC50 (GlyT2 F515V mutant): 7.8 µM | EC50 (GlyT2 Y430F mutant): 12 µM | EC50 (GlyT2 Y430L mutant): 19 µM
